Source: the NIST ThermoML archive (doi:10.1021/acs.jced.7b00221)

Assay: xn = mol fraction of the nth substance listed
Details: 100 kPa, Liquid; for viscosity: Cone and plate viscometry; for mass density: Vibrating tube method

CCCCCCn1cc[n+](C)c1.O=[N+]([O-])c1cn[n-]c1 [1-hexyl-3-methylimidazolium 4-nitropyrazolide] + CCCCCCCCCCCCCC[P+](CCCCCC)(CCCCCC)CCCCCC.O=S(=O)([N-]S(=O)(=O)C(F)(F)F)C(F)(F)F
Details | mass density, x1 = 0.25 [kg/m3] | mass density, x1 = 0.5 [kg/m3] | mass density, x1 = 0.749 [kg/m3] | viscosity, x1 = 0.101 [mPa·s] | viscosity, x1 = 0.299 [mPa·s] | viscosity, x1 = 0.5 [mPa·s] | viscosity, x1 = 0.7 [mPa·s] | viscosity, x1 = 0.9 [mPa·s]
278.15 K | – | – | – | 1201 | 1360 | 1582 | 2039 | 2649
283.15 K | 1081.8 | 1090.7 | 1105.6 | 816 | 914 | 1045 | 1290 | 1540
288.15 K | 1078.2 | 1087.1 | 1102 | 570 | 629 | 707 | 840 | 935
293.15 K | 1074.6 | 1083.6 | 1098.5 | 410 | 445 | 492 | 566 | 597
295.15 K | 1073.1 | 1082.2 | 1097.2 | – | – | – | – | –
298.15 K | 1071 | 1080.1 | 1095.2 | 302 | 323 | 352 | 395 | 400
303.15 K | 1067.4 | 1076.6 | 1091.7 | 228 | 241 | 259 | 285 | 278
308.15 K | 1063.8 | 1073.1 | 1088.3 | 175 | 184 | 195 | 211 | 200
313.15 K | 1060.3 | 1069.6 | 1084.9 | 138 | 142 | 150 | 160 | 149
318.15 K | 1056.8 | 1066.2 | 1081.6 | 110 | 113 | 118 | 124 | 113
323.15 K | 1053.4 | 1062.8 | 1078.3 | 90 | 91 | 94 | 99 | 89
328.15 K | 1049.9 | 1059.4 | 1075 | – | – | – | – | –
333.15 K | 1046.4 | 1056 | 1071.7 | – | – | – | – | –
338.15 K | 1042.9 | 1052.6 | 1068.3 | – | – | – | – | –
343.15 K | 1039.4 | 1049.2 | 1065 | – | – | – | – | –
348.15 K | 1035.9 | 1045.8 | 1061.7 | – | – | – | – | –
353.15 K | 1032.5 | 1042.4 | 1058.5 | – | – | – | – | –

CCCCCCCC[P+](CC)(CC)CC.O=[N+]([O-])c1cn[n-]c1 [triethyloctylphosphonium 4-nitropyrazolide] + CCCCCC[n+]1ccn(C)c1.O=S(=O)([N-]S(=O)(=O)C(F)(F)F)C(F)(F)F
Details | mass density [kg/m3] | viscosity [mPa·s]
278.15 K, x1 = 0.126 | – | 267
278.15 K, x1 = 0.25 | – | 358
278.15 K, x1 = 0.499 | – | 680
278.15 K, x1 = 0.75 | – | 1046
278.15 K, x1 = 0.898 | – | 1242
283.15 K, x1 = 0.126 | 1340 | 191
283.15 K, x1 = 0.25 | 1296.5 | 251
283.15 K, x1 = 0.499 | 1209.6 | 456
283.15 K, x1 = 0.75 | 1124.3 | 682
283.15 K, x1 = 0.898 | 1074.4 | 804
283.15 K, x1 = 1 | 1040.7 | –
288.15 K, x1 = 0.126 | 1335.5 | 140
288.15 K, x1 = 0.25 | 1292.3 | 180
288.15 K, x1 = 0.499 | 1205.8 | 314
288.15 K, x1 = 0.75 | 1120.9 | 457
288.15 K, x1 = 0.898 | 1071.2 | 535
288.15 K, x1 = 1 | 1037.7 | –
293.15 K, x1 = 0.126 | 1331.1 | 106
293.15 K, x1 = 0.25 | 1288.2 | 133
293.15 K, x1 = 0.499 | 1201.9 | 223
293.15 K, x1 = 0.75 | 1117.5 | 317
293.15 K, x1 = 0.898 | 1068 | 369
293.15 K, x1 = 1 | 1034.6 | –
295.15 K, x1 = 0.126 | 1329.4 | –
295.15 K, x1 = 0.25 | 1286.5 | –
295.15 K, x1 = 0.499 | 1200.4 | –
295.15 K, x1 = 0.75 | 1116.1 | –
295.15 K, x1 = 0.898 | 1066.8 | –
295.15 K, x1 = 1 | 1033.4 | –
298.15 K, x1 = 0.126 | 1326.7 | 82
298.15 K, x1 = 0.25 | 1284.1 | 102
298.15 K, x1 = 0.499 | 1198.2 | 164
298.15 K, x1 = 0.75 | 1114.1 | 227
298.15 K, x1 = 0.898 | 1064.8 | 263
298.15 K, x1 = 1 | 1031.5 | –
303.15 K, x1 = 0.126 | 1322.4 | 66
303.15 K, x1 = 0.25 | 1280 | 79
303.15 K, x1 = 0.499 | 1194.5 | 124
303.15 K, x1 = 0.75 | 1110.7 | 168
303.15 K, x1 = 0.898 | 1061.7 | 192
303.15 K, x1 = 1 | 1028.5 | –
308.15 K, x1 = 0.126 | 1318.1 | 53
308.15 K, x1 = 0.25 | 1275.9 | 63
308.15 K, x1 = 0.499 | 1190.9 | 96
308.15 K, x1 = 0.75 | 1107.5 | 127
308.15 K, x1 = 0.898 | 1058.6 | 145
308.15 K, x1 = 1 | 1025.5 | –
313.15 K, x1 = 0.126 | 1313.8 | –
313.15 K, x1 = 0.25 | 1271.8 | 52
313.15 K, x1 = 0.499 | 1187.2 | 73
313.15 K, x1 = 0.75 | 1104.2 | 99
313.15 K, x1 = 0.898 | 1055.5 | 110
313.15 K, x1 = 1 | 1022.6 | –
318.15 K, x1 = 0.126 | 1309.6 | –
318.15 K, x1 = 0.25 | 1267.7 | –
318.15 K, x1 = 0.499 | 1183.5 | 59
318.15 K, x1 = 0.75 | 1100.9 | 77
318.15 K, x1 = 0.898 | 1052.5 | 83
318.15 K, x1 = 1 | 1019.6 | –
323.15 K, x1 = 0.126 | 1305.4 | –
323.15 K, x1 = 0.25 | 1263.7 | –
323.15 K, x1 = 0.499 | 1179.9 | –
323.15 K, x1 = 0.75 | 1097.6 | 62
323.15 K, x1 = 0.898 | 1049.4 | 67
323.15 K, x1 = 1 | 1016.7 | –
328.15 K, x1 = 0.126 | 1301.2 | –
328.15 K, x1 = 0.25 | 1259.6 | –
328.15 K, x1 = 0.499 | 1176.2 | –
328.15 K, x1 = 0.75 | 1094.3 | –
328.15 K, x1 = 0.898 | 1046.3 | –
328.15 K, x1 = 1 | 1013.8 | –
333.15 K, x1 = 0.126 | 1297 | –
333.15 K, x1 = 0.25 | 1255.5 | –
333.15 K, x1 = 0.499 | 1172.6 | –
333.15 K, x1 = 0.75 | 1091.1 | –
333.15 K, x1 = 0.898 | 1043.3 | –
333.15 K, x1 = 1 | 1010.8 | –
338.15 K, x1 = 0.126 | 1292.8 | –
338.15 K, x1 = 0.25 | 1251.5 | –
338.15 K, x1 = 0.499 | 1169 | –
338.15 K, x1 = 0.75 | 1087.8 | –
338.15 K, x1 = 0.898 | 1040.2 | –
338.15 K, x1 = 1 | 1007.9 | –
343.15 K, x1 = 0.126 | 1288.7 | –
343.15 K, x1 = 0.25 | 1247.5 | –
343.15 K, x1 = 0.499 | 1165.3 | –
343.15 K, x1 = 0.75 | 1084.6 | –
343.15 K, x1 = 0.898 | 1037.2 | –
343.15 K, x1 = 1 | 1005 | –
348.15 K, x1 = 0.126 | 1284.5 | –
348.15 K, x1 = 0.25 | 1243.5 | –
348.15 K, x1 = 0.499 | 1161.7 | –
348.15 K, x1 = 0.75 | 1081.3 | –
348.15 K, x1 = 0.898 | 1034.1 | –
348.15 K, x1 = 1 | 1002.1 | –
353.15 K, x1 = 0.126 | 1280.3 | –
353.15 K, x1 = 0.25 | 1239.5 | –
353.15 K, x1 = 0.499 | 1158.1 | –
353.15 K, x1 = 0.75 | 1078.1 | –
353.15 K, x1 = 0.898 | 1031.1 | –
353.15 K, x1 = 1 | 999.2 | –
